From patent US11707065B2, “Method for biofilm dispersal” (MC (US) 3 LLC, priority 2017, dated 2023)

Legend:
[1] = system: Desulfovibrio desulfuricans (DSM 12129) biofilm; assay: Biofilm dispersal assay, crystal violet staining of remaining biofilm in 96-well plates; type: cell-based; conditions: D. desulfuricans, 2 h treatment, 24 h biofilm, negative control 0.88
Protocol: (§1) Cultures of Desulfovibrio vulgaris (ATCC 29579) and Desulfovibrio desulfuricans (DSM 12129) were prepared in Modified Baar's medium at 30 C under anaerobic conditions. The bacterial cultures were then used to prepare bacterial suspensions in fresh Modified Baar's medium to a cell density of 0.1 (Table 2 to 6) or 0.05 (Table 1) at 600 nm. The appropriate bacterial suspension was used to fill 96-well plates and the plates were incubated in an anaerobic glove box for 24 h (Table 2 to 6) or 48 h (Table 1) at 30° C. to develop biofilms. Stocks of D-mannose (2.85 M, Alfa Aesar, Cat #A10842), 2DG (1.22 M, Alfa Aesar, Cat #AAAL07338-06), αMM (1.22 M, Acros Organics, Cat #AC229251000), and αMG (1.22 M, Alfa Aesar, Cat #AAA12484-22) were prepared in sterile distilled water and filtered through a 0.22 μm filter. For biofilm dispersal assay, the planktonic cells were removed, and the plates were washed with 150 μL of 1× of phosphate buffered saline (pH 7.4); D-mannose, 2DG, αMM, and αMG were added, the volume was adjusted with 1×PBS, pH 7.4 to 150 μL, and the plates were incubated in the anaerobic glove box for 2 h (Table 1, 2, 4, 5, 6) or 14 h (Table 3) for biofilm dispersal studies. After the treatment, supernatants were discarded; the wells were washed three times with deionized water (DW) by dipping the plates into a 1 L solution of DW, and the plates were dried via a piece of paper towel by patting. 300 μL of 0.1% crystal violet was added to each well, the plates were incubated for 20 minutes at room temperature (25° C.), and the staining solution was discarded. The plates were washed three times with DW by dipping the plates into a 1 L solution of DW, then 300 μL of 95% ethanol was added to each well, and the plates were soaked for 5 min to dissolve the crystal violet. Total biofilm was measured spectrophotometrically at 540 nm using a Sunrise microplate reader (Tecan, Austria Gesellschaft, Salzburg, Austria).

[2] = system: Desulfovibrio vulgaris (ATCC 29579) biofilm; assay: as above; type: cell-based; conditions: D. vulgaris
Protocol: as §1

[3] = 30 mM, 2 h treatment, 24 h biofilm (cell density 0.1), negative control per table
[4] = 100 mM, 2 h treatment, 24 h biofilm (cell density 0.1), negative control per table
[5] = 500 mM, 2 h treatment, 24 h biofilm (cell density 0.1), negative control per table

SMILES | Remaining biofilm OD540 (average) ([1]; 30 mM) | Remaining biofilm OD540 (average) ([1]; 100 mM) | Remaining biofilm OD540 (average) ([1]; 500 mM) | Remaining biofilm OD540 ([2]; 1 mM, 14 h treatment, 24 h biofilm, negative control 0.26) | Remaining biofilm OD540 ([2]; 5 mM, 14 h treatment, 24 h biofilm, negative control 0.26) | Remaining biofilm OD540 ([2]; 10 mM, 14 h treatment, 24 h biofilm, negative control 0.26) | Remaining biofilm OD540 [2, 3] | Remaining biofilm OD540 [2, 4] | Remaining biofilm OD540 [2, 5]
O=CC[C@@H](O)[C@H](O)[C@H](O)CO [2DG, 2-deoxy-D-glucose] | 0.59 | 0.49 | 0.41 | 0.24 | 0.21 | 0.16 | 0.24 | 0.17 | 0.18
CO[C@H]1O[C@H](CO)[C@@H](O)[C@H](O)[C@H]1O [αMG, methyl α-D-glucopyranoside] | 0.75 | 0.62 | 0.55 | – | – | – | 0.39 | 0.33 | 0.45
CO[C@H]1O[C@H](CO)[C@@H](O)[C@H](O)[C@@H]1O [αMM, methyl α-D-mannopyranoside] | 0.60 | 0.53 | 0.50 | – | – | – | 0.42 | 0.40 | 0.23
